Measured values taken from US20250339547A1, “MET BCL-XL INHIBITOR ANTIBODY-DRUG CONJUGATES AND METHODS OF USE THEREOF” (Novartis AG, priority 2022, published 2025).

Assays:
[1] = system: EBC-1; experiment: In vitro activity in EBC-1 cell line (CTG 120h), Example 12; type: cell-based; conditions: Homo sapiens, EBC-1, 120 h, EBC1, CTG 120 h
Description: (§1) EBC-1 and SNU-5 cell lines were cultured in the media described above at 37° C. in a humidified atmosphere containing 5% CO2. The cells were seeded in 96 well clear bottom plates (96 well clear-bottom, white, Corning reference 3903) and exposed to the mAbs or ADCs for 120h (serially diluted; 9 concentrations each, triplicates). Effects of mAbs or ADCs on cell viability were assessed after 5 days of incubation at 37° C./5% CO2 by quantification of cellular ATP levels using CellTiter-Glo reagent (Promega Ref: G7571) at 75 μL reagent/well. All the conditions were tested in triplicates. Luminescence was quantified on a multipurpose plate reader. IC50s were calculated using standard four-parametric curve fitting. IC50 is defined as the compound concentration at which the CTG signal is reduced to 50% of that measured for the control. Two independent experiments were performed (N1 and N2).
Plating Conditions: EBC-1: 75 μL/well of 60000 cells/mL for 120h in 96-well plate SNU-5: 75 μL/well of 60000 cells/mL for 120h in 96-well plate H1650 (ATOC): 75 μL/well of 125000 cells/mL for 120h in 96 microwell round bottom plates

[2] = system: SNU-5; experiment: In vitro activity in SNU-5 cell line (CTG 120h), Example 12; type: cell-based; conditions: Homo sapiens, SNU-5, 120 h, SNU5, CTG 120 h
Description: EBC-1 and SNU-5 cell lines were cultured in the media described above at 37° C. in a humidified atmosphere containing 5% CO2. […] Effects of mAbs or ADCs on cell viability were assessed after 5 days of incubation at 37° C./5% CO2 by quantification of cellular ATP levels using CellTiter-Glo reagent (Promega Ref: G7571) at 75 μL reagent/well. All the conditions were tested in triplicates. Luminescence was quantified on a multipurpose plate reader. IC50s were calculated using standard four-parametric curve fitting. […] Two independent experiments were performed (N1 and N2).

[3] = system: SNU-5; experiment: In vitro activity in SNU-5 cell line (CTG 120h), Example 6; type: cell-based; conditions: Homo sapiens, SNU-5, 120 h, SNU-5, CTG 120 h
Description: as §1, with “Cell” for “EBC-1 and SNU-5 cell”, “Cells” for “The cells”, “N2). IC50 data of each experiment and the arithmetic mean is shown in Table 14 for all the antibodies and ADCs tested.” for “N2).”

[4] = system: EBC-1; experiment: In vitro activity in EBC-1 cell line (CTG 120h), Example 6; type: cell-based; conditions: Homo sapiens, EBC-1, 120 h, EBC-1, CTG 120 h
Description: as §1, with “Cell” for “EBC-1 and SNU-5 cell”, “Cells” for “The cells”, “N2). IC50 data of each experiment and the arithmetic mean is shown in Table 14 for all the antibodies and ADCs tested.” for “N2).”

[5] = system: H1650 xenografts; experiment: In vivo efficacy alone or with paclitaxel in Met non amplified NCI-H1650 lung adenocarcinoma human cell model, Example 15; set-up: species or system SCID mice; conditions: paclitaxel 12.5 mg/kg IV at day 1, 8 and 15, single agent
Description: Below are the procedures for determining the in vivo therapeutic effect of a Bcl-xL ADC targeting the Met protein as a single agent or in combination with paclitaxel. Their activities were compared to the corresponding naked anti-Met mAb or Ab G-L42C-P25 (non-targeting ADC) formulated in Phosphate-Buffered Saline (PBS) in a Met non amplified NCI-H1650 lung adenocarcinoma human cell line after intravenous (IV) administration.
NCI-H1650 cells, obtained from ATCC, were cultured in RPMI supplemented with 10% SBS, 1% Penicillin-Streptomycin and 1% HEPES. Cells were resuspended in 50% Matrigel® (Corning®) and 0.1 ml containing 10×10^6 cells were subcutaneously inoculated into the right flank of female SCID mice, provided by Charles River.
Mice body weight was monitored 3 times a week and tumor size measured using electronic calipers. Tumor volume was estimated by measuring the minimum and maximum tumor diameters using the formula: (minimum diameter)2(maximum diameter)/2.
With DTV (Delta Tumor Volume) at Dx, calculated being TV at Dx−TV at Randomization.
Mice were sacrificed at the first measurement for which tumor volume exceeded 2000 mm3 or at the first signs of animal health deterioration. […] SCID mice were maintained according to institutional guidelines.

[6] = system: HCC78 lung cancer cell line; experiment: HCC78 viability, single agents or 1:1 combination with paclitaxel (CTG 120h), Example 13; type: cell-based; conditions: Homo sapiens, HCC78, 120 h
Description: HCC78 lung cancer cell line was cultured in the media described above at 37° C. in a humidified atmosphere containing 5% CO2. […] When in 1:1 combination, both paclitaxel and the mAb or ADC were serially diluted (9 concentrations each, triplicates). Effect on cell viability was assessed after 5 days of incubation at 37° C./5% CO2 by quantification of cellular ATP levels using CellTiter-Glo reagent (Promega Ref: G7571) at 75 μL reagent/well. All the conditions were tested in triplicates. Luminescence was quantified on a multipurpose plate reader. IC50s were calculated using standard four-parametric curve fitting. […] Two independent experiments were performed (N1 and N2).

[7] = system: lung cancer cell lines; experiment: Lung cancer cell line panel of Example 7, statements in text (CTG 120h); type: cell-based; conditions: lung cancer cell lines of Table 15, single agents
Description: Cell lines were cultured in the media described above at 37° C. in a humidified atmosphere containing 5% CO2. Cells were seeded in 96 well clear bottom plates (96 well clear-bottom, white, Corning reference 3903) and exposed to the mAbs, mAbs mixture, ADCs or ADCs mixture as single agents or in 1:1 combination with Paclitaxel. When in 1:1 combination, both the combining partner (Paclitaxel) and the mAb, mAb mixture, ADC or ADC mixture were serially diluted (9 concentrations each, triplicates). Effect on cell viability was assessed after 5 days of incubation at 37° C./5% CO2 by quantification of cellular ATP levels using CellTiter-Glo reagent (Promega Ref: G7571) at 75 μL reagent/well. All the conditions were tested in triplicates. Luminescence was quantified on a multipurpose plate reader. IC50s were calculated using standard four-parametric curve fitting. IC50 is defined as the compound concentration at which the CTG signal is reduced to 50% of that measured for the control. Two independent experiments were performed (N1 and N2).

| IC50 ([1]; Mean) [nM] | IC50 ([1]; N1) [nM] | IC50 ([1]; N2) [nM] | IC50 ([2]; Mean) [nM] | IC50 ([2]; N1) [nM] | IC50 ([2]; N2) [nM] | IC50 ([3]; mean) [nM] | IC50 ([3]; n = 1) [nM] | IC50 ([3]; n = 2) [nM] | IC50 ([4]; mean) [nM] | IC50 ([4]; n = 1) [nM] | IC50 ([4]; n = 2) [nM] | IC50 ([6]; Mean) [nM] | IC50 ([6]; N1) [nM] | IC50 ([6]; N2) [nM] | SMILES | TGI % (d 18) [5] [%] | effect on the viability [7] |
| --- | --- | --- | --- | --- | --- | --- | --- | --- | --- | --- | --- | --- | --- | --- | --- | --- | --- |
| 12.6 | 12.8 | 12.4 | 5510 | 5510 | > 30000 | 10700 | 10600 | 10800 | 43.4 | 20.8 | 65.9 | – | – | – | Cc1c(Nc2nc3ccccc3s2)nnc2c1CCCN2c1ccc(-c2cnn(C[C@]34C[C@]5(C)C[C@](C)(C3)C[C@@](OCCNCCCO)(C5)C4)c2C)c(C(=O)O)n1 [P25, 6-[3-(1,3-benzothiazol-2-ylamino)-4-methyl-6,7-dihydro-5H-pyrido[2,3-c]pyridazin-8-yl]-3-[1-[[3-[2-(3-hydroxypropylamino)ethoxy]-5,7-dimethyl-1-adamantyl]methyl]-5-methyl-pyrazol-4-yl]pyridine-2-carboxylic acid] | – | – |
| – | – | – | – | – | – | – | – | – | – | – | – | 6.44 | 6.04 | 6.84 | CC(=O)O[C@H]1C(=O)[C@@]2(C)[C@H]([C@H](OC(=O)c3ccccc3)[C@]3(O)C[C@H](OC(=O)[C@H](O)[C@@H](NC(=O)c4ccccc4)c4ccccc4)C(C)=C1C3(C)C)[C@]1(OC(C)=O)CO[C@@H]1C[C@@H]2O [Paclitaxel, paclitaxel] | −14.4 | induced dose dependent decrease in cell viability (with measurable IC50) in all cell lines except NCI-H1838 |
